pIC50, pKi: −log10 of the molar value.

The target of assay [1] is T1, Alpha-2C adrenergic receptor (Homo sapiens, UniProt P18825).
T1 sequence (P18825 whole entry): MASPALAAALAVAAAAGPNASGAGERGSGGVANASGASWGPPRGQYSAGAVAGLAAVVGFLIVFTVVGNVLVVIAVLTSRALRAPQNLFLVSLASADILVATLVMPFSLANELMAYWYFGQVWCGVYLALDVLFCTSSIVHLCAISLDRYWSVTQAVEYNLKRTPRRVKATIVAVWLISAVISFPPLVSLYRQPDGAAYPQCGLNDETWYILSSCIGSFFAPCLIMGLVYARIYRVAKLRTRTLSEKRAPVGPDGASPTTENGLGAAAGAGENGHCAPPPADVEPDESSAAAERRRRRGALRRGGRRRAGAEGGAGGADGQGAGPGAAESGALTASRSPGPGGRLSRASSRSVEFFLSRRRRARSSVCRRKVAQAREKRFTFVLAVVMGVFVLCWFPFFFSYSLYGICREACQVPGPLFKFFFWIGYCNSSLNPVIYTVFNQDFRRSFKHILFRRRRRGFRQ
The assay can be described thus: DRUGMATRIX: Adrenergic Alpha-2C radioligand binding (ligand: [3H] MK-912). The class given is cell membranes, Sf9, Membrane. Particulars: for IC50 / Ki: sf9.

Assay [2] deals with T2, 3-hydroxy-3-methylglutaryl-coenzyme A reductase (Homo sapiens, UniProt P04035).
T2 sequence (P04035 whole entry): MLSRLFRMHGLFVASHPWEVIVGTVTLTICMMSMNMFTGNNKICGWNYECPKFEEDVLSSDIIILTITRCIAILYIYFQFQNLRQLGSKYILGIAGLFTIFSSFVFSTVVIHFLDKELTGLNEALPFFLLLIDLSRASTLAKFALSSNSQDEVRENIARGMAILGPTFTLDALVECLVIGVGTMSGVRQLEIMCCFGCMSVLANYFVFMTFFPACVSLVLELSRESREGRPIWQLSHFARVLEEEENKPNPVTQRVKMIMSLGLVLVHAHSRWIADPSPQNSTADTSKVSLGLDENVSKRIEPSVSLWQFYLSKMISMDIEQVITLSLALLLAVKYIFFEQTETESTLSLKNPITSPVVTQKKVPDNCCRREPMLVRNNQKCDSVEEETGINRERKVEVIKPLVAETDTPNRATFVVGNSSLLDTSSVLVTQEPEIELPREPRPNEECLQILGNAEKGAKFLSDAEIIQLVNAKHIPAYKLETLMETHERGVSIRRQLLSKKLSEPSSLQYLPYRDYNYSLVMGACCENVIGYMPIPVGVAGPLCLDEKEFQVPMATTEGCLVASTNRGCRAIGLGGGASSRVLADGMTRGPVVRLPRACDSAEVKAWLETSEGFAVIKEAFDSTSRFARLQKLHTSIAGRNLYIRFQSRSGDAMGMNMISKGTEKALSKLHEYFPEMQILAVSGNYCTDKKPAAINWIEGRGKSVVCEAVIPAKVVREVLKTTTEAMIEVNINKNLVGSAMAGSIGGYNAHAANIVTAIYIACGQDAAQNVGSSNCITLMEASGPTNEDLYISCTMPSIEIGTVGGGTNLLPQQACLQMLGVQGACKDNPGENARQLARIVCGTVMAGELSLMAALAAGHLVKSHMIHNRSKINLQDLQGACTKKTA
The arrangement: species or system Escherichia coli.

The target in assay [3] is T3, Polyunsaturated fatty acid lipoxygenase ALOX15 (Oryctolagus cuniculus, UniProt P12530).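 Also: inhibition of 15-lipoxygenase enzyme activity measured with linoleic acid as the substrate; in other assays of this panel Not Active means under 50% inhibition at 10 µM.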
T3 sequence (P12530 whole entry): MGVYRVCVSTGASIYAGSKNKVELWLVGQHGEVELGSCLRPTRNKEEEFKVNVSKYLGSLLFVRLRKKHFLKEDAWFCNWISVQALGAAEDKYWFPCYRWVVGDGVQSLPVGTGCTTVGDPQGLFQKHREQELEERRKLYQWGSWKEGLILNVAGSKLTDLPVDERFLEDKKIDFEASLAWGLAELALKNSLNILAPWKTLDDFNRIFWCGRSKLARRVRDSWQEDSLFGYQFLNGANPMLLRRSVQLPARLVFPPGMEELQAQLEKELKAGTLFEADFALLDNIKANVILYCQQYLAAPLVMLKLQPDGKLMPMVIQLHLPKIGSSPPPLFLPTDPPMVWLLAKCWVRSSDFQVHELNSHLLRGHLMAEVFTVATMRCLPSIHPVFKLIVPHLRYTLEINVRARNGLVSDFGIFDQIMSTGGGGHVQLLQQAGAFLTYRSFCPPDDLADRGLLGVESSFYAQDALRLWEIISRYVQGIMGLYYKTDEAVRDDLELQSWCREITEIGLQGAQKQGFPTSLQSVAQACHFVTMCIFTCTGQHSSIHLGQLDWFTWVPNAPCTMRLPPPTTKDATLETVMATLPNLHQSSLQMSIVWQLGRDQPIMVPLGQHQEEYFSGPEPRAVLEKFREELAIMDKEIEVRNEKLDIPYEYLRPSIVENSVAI
The experiment in a line: biochemical. The class given is tissue-based, Reticulocytes. The settings on record: reticulocytes.

Assay [4] has as its target Melanocortin receptor 4 (Homo sapiens, UniProt P32245). The class given is cell membranes, Membrane. The settings on record: hek293. Also: in other assays of this panel Not Active means under 50% inhibition at 10 µM.
The target in assay [5] is Mitogen-activated protein kinase 14 (Homo sapiens, UniProt Q16539). Set-up: species or system Escherichia coli.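 Also: inhibition of p38alpha enzyme activity in a biochemical kinase assay, with myelin basic protein serving as substrate; in other assays of this panel Not Active means under 50% inhibition at 10 µM.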
Sequence of Mitogen-activated protein kinase 14 (Q16539 whole entry): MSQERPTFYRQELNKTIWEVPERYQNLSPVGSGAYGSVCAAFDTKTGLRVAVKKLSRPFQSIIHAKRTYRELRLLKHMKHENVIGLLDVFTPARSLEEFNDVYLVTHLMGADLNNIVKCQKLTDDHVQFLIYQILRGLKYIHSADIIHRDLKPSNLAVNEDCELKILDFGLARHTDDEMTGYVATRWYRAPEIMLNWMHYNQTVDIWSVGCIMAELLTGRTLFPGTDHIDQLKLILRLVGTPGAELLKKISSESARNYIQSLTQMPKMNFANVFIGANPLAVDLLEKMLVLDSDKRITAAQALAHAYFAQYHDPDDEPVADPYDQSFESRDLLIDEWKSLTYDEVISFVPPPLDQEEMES
Assay [6] concerns the target Epidermal growth factor receptor (Homo sapiens, UniProt P00533). The assay can be described thus: DRUGMATRIX: Protein Tyrosine Kinase, EGF Receptor enzyme inhibition (substrate: Poly(Glu:Tyr)). The settings on record: Not Active = under 50% inhibition at 10 µM; for pIC50: read-out: IC50. The class given is cell-based, Insect cells.
Assay [7] concerns the target Tyrosine-protein kinase Fyn (Homo sapiens, UniProt P06241). The assay can be described thus: biochemical. The class given is cell-based, Insect cells. The settings on record: for pIC50: read-out: IC50.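 As to all read-outs here: enzymatic inhibition of Fyn kinase activity measured with Poly(Glu:Tyr) as the phosphorylation substrate; in other assays of this panel Not Active means under 50% inhibition at 10 µM.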

Sequence of Melanocortin receptor 4 (P32245 whole entry): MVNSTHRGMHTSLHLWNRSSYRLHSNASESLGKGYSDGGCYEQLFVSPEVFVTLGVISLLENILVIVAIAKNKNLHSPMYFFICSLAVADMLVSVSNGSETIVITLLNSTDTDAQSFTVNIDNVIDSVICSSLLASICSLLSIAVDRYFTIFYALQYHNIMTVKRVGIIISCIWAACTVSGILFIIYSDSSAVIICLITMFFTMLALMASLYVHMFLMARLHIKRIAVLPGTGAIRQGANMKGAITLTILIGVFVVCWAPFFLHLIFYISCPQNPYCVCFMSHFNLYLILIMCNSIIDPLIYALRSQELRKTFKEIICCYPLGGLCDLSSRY
Sequence of Tyrosine-protein kinase Fyn (P06241 whole entry): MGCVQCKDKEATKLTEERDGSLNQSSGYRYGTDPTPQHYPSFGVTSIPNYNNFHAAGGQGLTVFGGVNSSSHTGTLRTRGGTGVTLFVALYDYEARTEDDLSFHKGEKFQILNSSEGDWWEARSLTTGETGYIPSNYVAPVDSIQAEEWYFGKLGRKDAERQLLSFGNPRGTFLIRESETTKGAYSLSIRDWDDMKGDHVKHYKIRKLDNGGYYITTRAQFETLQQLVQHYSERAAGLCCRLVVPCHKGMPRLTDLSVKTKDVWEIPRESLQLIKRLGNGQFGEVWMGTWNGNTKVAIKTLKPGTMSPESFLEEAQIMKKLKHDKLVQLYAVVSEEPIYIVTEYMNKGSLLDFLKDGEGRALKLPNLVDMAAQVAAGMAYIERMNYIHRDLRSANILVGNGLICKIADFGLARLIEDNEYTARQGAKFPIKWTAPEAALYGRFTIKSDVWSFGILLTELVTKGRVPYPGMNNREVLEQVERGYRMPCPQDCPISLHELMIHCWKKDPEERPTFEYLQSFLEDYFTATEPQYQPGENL

On to `C[N+](C)(C)CCOC(=O)CCC(=O)OCC[N+](C)(C)C.[Cl-].[Cl-]` [SUCCINYLCHOLINE CHLORIDE], for which the IC50 result in assay [1], in assay [2], in assay [3], in assay [4], in assay [5] and in assay [6] (insect cells) was “Not Active” throughout. Besides, in assay [7] (insect cells), the IC50 result is reported as “Not Active”.
With `Nc1ccc(S(=O)(=O)NC(=O)c2ccccc2)cc1` [SULFABENZAMIDE], the IC50 entry in assay [1], in assay [2], in assay [3], in assay [4], in assay [5] and in assay [6] (insect cells) was “Not Active” throughout. Besides, the IC50 result in assay [7] (insect cells) is listed as “Not Active”.
What is called pIC50 is −log10 of the IC50, conventionally taken in molar units. As usually defined, the pKi is the Ki on a negative log10 scale, so that one unit is a factor of ten. As to `CCCCCCCCNC(C)C(O)c1ccc(SC(C)C)cc1` (stereo not drawn) [SULOCTIDIL], the pIC50 in assay [1] (read-out: IC50) was 5.46; in assay [6], 6.10; in assay [7], 6.14. In addition, the pKi in assay [1] (read-out: Ki) was 6.30. Moreover, the IC50 result in assay [2], in assay [3], in assay [4] and in assay [5] was “Not Active” in each case.
With `O=c1[nH]c(=O)n(C2CCCO2)cc1F` (stereo not drawn) [TEGAFUR], the IC50 result in assay [1], in assay [2], in assay [3], in assay [4], in assay [5] and in assay [6] (insect cells) was “Not Active” each time. Moreover, the IC50 entry in assay [7] (insect cells) was “Not Active”.
Regarding `CC(=N)S` [THIOACETAMIDE], the IC50 result in assay [1], in assay [2], in assay [3], in assay [4], in assay [5] and in assay [6] (insect cells) was “Not Active” in each case. Besides, the IC50 result in assay [7] (insect cells) is “Not Active”.
For the molecule `Cc1ccc(C(=O)c2ccc(CC(=O)O)n2C)cc1` [TOLMETIN], the IC50 result in assay [1], in assay [2], in assay [3], in assay [4], in assay [5] and in assay [6] (insect cells) was “Not Active” throughout. In addition, the IC50 result in assay [7] (insect cells) is reported as “Not Active”.
With `CC(=O)OCC(COC(C)=O)OC(C)=O` [TRIACETIN], the IC50 entry in assay [1], in assay [2], in assay [3], in assay [4], in assay [5] and in assay [6] (insect cells) was “Not Active” in each case. Besides, the IC50 entry in assay [7] (insect cells) is reported as “Not Active”.
For `CN1CCN(CCCN2c3ccccc3Sc3ccc(C(F)(F)F)cc32)CC1` [TRIFLUOPERAZINE], the IC50 entry in assay [1], in assay [2], in assay [3], in assay [4], in assay [5] and in assay [6] (insect cells) was “Not Active” each time. The IC50 result in assay [7] (insect cells) was “Not Active”.
For the molecule TRANSPLATIN, the IC50 result in assay [1], in assay [2], in assay [3], in assay [4] and in assay [5] was “Not Active” in each case. In addition, the Ki entry in assay [1], in assay [2], in assay [3], in assay [4] and in assay [5] was “Not Active” each time. Also, the results for the pIC50 in assay [6] (insect cells) and in assay [7] (insect cells) were 5.97 and 6.25, respectively.
As for ZIRCONIUM(IV) CHLORIDE, the IC50 entry in assay [1], in assay [2], in assay [3], in assay [4], in assay [5] and in assay [6] (insect cells) was “Not Active” throughout. Moreover, in assay [7] (insect cells), the IC50 result is on record as “Not Active”. Further, the Ki entry in assay [1], in assay [2], in assay [3], in assay [4], in assay [5] and in assay [6] (insect cells) was “Not Active” in each case. Besides, the Ki result in assay [7] (insect cells) is given as “Not Active”.
